{"source": "paper PMC6326797", "about": "(Nucleic Acids Research, 2018)", "molecular_target": "T1, RNase L (Homo sapiens, UniProt Q05823)", "T1 sequence (Q05823 1-741)": "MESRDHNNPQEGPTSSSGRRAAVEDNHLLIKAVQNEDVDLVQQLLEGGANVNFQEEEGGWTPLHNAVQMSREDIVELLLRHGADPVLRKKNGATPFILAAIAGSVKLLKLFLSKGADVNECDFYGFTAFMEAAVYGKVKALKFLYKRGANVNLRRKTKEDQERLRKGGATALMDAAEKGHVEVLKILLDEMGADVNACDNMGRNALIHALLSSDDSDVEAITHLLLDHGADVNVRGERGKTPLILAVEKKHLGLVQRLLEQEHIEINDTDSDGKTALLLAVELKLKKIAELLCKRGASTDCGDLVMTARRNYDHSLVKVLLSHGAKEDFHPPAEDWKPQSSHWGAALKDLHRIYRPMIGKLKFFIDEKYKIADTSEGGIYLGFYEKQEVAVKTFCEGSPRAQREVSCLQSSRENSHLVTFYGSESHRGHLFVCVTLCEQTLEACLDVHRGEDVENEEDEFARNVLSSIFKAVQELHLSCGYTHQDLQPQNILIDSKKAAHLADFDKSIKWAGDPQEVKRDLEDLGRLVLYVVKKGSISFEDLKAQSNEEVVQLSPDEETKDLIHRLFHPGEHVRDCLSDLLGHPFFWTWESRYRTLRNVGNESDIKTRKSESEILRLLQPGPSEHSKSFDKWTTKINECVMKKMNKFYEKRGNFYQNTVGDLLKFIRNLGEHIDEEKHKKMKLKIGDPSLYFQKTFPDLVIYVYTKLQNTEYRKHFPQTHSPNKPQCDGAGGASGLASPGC", "experiment": "FRET RNA cleavage assay", "assay_type": "biochemical", "data": [{"smiles": "COc1cc(/C=C/C(=O)CC(=O)/C=C/c2ccc(O)c(OC)c2)ccc1O", "note": "[curcumin]", "values": [{"measurement": "IC50", "result": "~30", "unit": "µM"}]}]}
